Data set [1] concerns CAR mRNA. In words: Effect on CAR mRNA expression in rat hepatocytes at 1 uM by RT-PCR analysis relative to control. Format: ADME, cell-based, Hepatocyte. The following applies: read-out: FC.
The target of data set [2] is T1, Nuclear receptor subfamily 1 group I member 3 (Rattus norvegicus, UniProt Q9QUS1).
T1 sequence (Q9QUS1 whole entry): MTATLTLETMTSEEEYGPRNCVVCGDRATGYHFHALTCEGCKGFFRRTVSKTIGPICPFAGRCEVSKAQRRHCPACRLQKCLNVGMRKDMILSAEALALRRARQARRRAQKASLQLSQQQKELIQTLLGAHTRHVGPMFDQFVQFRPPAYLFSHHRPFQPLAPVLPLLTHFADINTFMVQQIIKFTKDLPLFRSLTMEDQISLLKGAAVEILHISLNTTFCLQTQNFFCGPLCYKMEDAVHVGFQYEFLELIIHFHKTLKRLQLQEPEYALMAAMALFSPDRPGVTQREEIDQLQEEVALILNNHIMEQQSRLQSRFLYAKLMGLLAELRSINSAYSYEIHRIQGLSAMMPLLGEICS
In words: Activation of CAR in rat hepatocytes assessed as effect on CYP2B1 mRNA expression at 1 uM after 24 hrs by RT-PCR analysis. Format: ADME, cell-based, Hepatocyte.

Data set [3] addresses T2, Nuclear receptor subfamily 1 group I member 2 (Rattus norvegicus, UniProt Q9R1A7).
T2 sequence (Q9R1A7 whole entry): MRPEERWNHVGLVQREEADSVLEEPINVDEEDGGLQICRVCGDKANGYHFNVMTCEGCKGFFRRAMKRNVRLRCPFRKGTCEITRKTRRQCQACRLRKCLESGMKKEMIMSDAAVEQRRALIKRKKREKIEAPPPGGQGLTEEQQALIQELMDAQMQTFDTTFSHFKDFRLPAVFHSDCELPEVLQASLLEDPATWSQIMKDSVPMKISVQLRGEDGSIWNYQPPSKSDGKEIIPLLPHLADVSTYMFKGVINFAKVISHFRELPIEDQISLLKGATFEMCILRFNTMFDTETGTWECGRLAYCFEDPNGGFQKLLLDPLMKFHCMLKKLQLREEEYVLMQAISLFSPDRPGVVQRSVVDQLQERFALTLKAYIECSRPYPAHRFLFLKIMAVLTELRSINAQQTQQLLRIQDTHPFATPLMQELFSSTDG
In words: Activation of PXR in rat hepatocytes assessed as effect on CYP3A-mediated testosterone 6beta-hydroxylation at 1 to 30 uM after 24 hrs by HPLC analysis. Format: ADME, cell-based, Hepatocyte.

Data set [4] concerns the target T1, Nuclear receptor subfamily 1 group I member 3. In words: Activation of CAR in rat hepatocytes assessed as upregulation of CYP2B1 mRNA expression at 3 uM after 24 hrs by RT-PCR analysis relative to phenobarbital. Format: ADME, cell-based, Hepatocyte.
Data set [5] has as its system PXR mRNA. In words: Effect on PXR mRNA expression in rat hepatocytes at 10 uM by RT-PCR analysis relative to control. The settings on record: read-out: FC. Format: ADME, cell-based, Hepatocyte.
In data set [6] the test system is Hepatocyte. In words: Cytotoxicity against rat hepatocytes at 1 to 100 uM after 24 hrs by lactate dehydrogenase assay. Format: cell-based.
The target in data set [7] is T3, Nuclear receptor subfamily 1 group I member 2 (Homo sapiens, UniProt O75469).
T3 sequence (O75469 whole entry): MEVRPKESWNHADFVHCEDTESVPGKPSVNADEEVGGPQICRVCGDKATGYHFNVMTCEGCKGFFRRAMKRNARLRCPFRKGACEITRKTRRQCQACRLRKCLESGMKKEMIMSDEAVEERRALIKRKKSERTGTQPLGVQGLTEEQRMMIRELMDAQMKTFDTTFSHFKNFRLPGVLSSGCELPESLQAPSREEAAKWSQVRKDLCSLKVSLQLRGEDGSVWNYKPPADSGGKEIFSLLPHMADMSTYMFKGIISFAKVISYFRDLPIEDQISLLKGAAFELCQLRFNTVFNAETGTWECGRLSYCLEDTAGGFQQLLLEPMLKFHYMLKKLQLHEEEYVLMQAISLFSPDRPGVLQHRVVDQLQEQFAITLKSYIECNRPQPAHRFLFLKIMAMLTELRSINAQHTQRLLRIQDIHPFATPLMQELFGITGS
In words: Activation of PXR in human Hu1043 hepatocytes assessed as effect on CYP3A4 mRNA expression at 10 to 60 uM after 24 hrs by RT-PCR analysis. Format: ADME, cell-based, Hepatocyte.

Data set [8] concerns the target T1, Nuclear receptor subfamily 1 group I member 3. In words: Activation of rat CAR expressed in rat hepatocytes coexpressing CYP2B1 at 30 uM after 24 hrs by dual luciferase reporter gene assay relative to phenobarbital. Format: ADME, cell-based, Hepatocyte. In general terms: Reporter assays use an easily measured gene product as a stand-in for the process of interest.

Data set [9] concerns the target T3, Nuclear receptor subfamily 1 group I member 2. In words: Activation of human PXR expressed in rat hepatocytes coexpressing CYP3A4 at 100 uM after 24 hrs by dual luciferase reporter gene assay. Format: ADME, cell-based, Hepatocyte.
Data set [10] shares this target. In words: Activation of PXR in human Hu1108 hepatocytes assessed as effect on CYP3A-mediated testosterone 6beta-hydroxylation at 10 to 50 uM after 24 hrs by HPLC analysis. Format: ADME, cell-based, Hepatocyte.
In data set [11] the test system is CAR mRNA. In words: Effect on CAR mRNA expression in rat hepatocytes at 10 uM by RT-PCR analysis relative to control. Format: ADME, cell-based, Hepatocyte. The settings on record: read-out: FC.
Data set [12] addresses T3, Nuclear receptor subfamily 1 group I member 2. In words: Antagonist activity at human PXR expressed in human HepG2 cells coexpressing CYP3A4 assessed as inhibition of rifampicin-induced receptor activation up to 100 uM after 24 hrs by dual luciferase reporter gene assay. Format: ADME, cell-based. The settings on record: hepg2, 24 h.
Data set [13] deals with T2, Nuclear receptor subfamily 1 group I member 2. In words: Activation of rat PXR expressed in rat hepatocytes coexpressing CYP3A4 at 100 uM after 24 hrs by dual luciferase reporter gene assay. Format: ADME, cell-based, Hepatocyte.
Data set [14] concerns CAR mRNA. In words: Effect on CAR mRNA expression in rat hepatocytes at 30 uM by RT-PCR analysis relative to control. Format: ADME, cell-based, Hepatocyte. The settings on record: read-out: FC.
Data set [15] relates to PXR mRNA. In words: Effect on PXR mRNA expression in rat hepatocytes at 3 uM by RT-PCR analysis relative to control. Format: ADME, cell-based, Hepatocyte. The following applies: read-out: FC.
The subject of data set [16] is CAR mRNA. In words: Effect on CAR mRNA expression in human hepatocytes at 50 uM by RT-PCR analysis relative to control. The following applies: read-out: FC. Format: ADME, cell-based, Hepatocyte.
Data set [17] addresses T1, Nuclear receptor subfamily 1 group I member 3. In words: Activation of rat CAR expressed in rat hepatocytes coexpressing CYP2B1 at 0.1 to 10 uM after 24 hrs by dual luciferase reporter gene assay. Format: ADME, cell-based, Hepatocyte.
The target is the same in data set [18]. In words: Activation of CAR in rat hepatocytes assessed as increase in CYP2B-mediated benzyloxyresorufin O-dealkylation at 10 uM after 24 hrs by spectrofluorometric analysis relative to phenobarbital. Format: ADME, cell-based, Hepatocyte.
The target is the same in data set [19]. In words: Activation of CAR in rat hepatocytes assessed as upregulation of CYP2B1 mRNA expression at 10 uM after 24 hrs by RT-PCR analysis relative to phenobarbital. Format: ADME, cell-based, Hepatocyte.
Data set [20] shares this target. In words: Activation of rat CAR expressed in rat hepatocytes coexpressing CYP2B1 at 100 uM after 24 hrs by dual luciferase reporter gene assay relative to control. The following applies: hepatocytes, 24 h, 100 µM. Format: ADME, cell-based, Hepatocyte.
Data set [21] deals with T2, Nuclear receptor subfamily 1 group I member 2. In words: Activation of PXR in rat hepatocytes assessed as upregulation of CYP3A23 mRNA expression at 1 to 30 uM after 24 hrs by RT-PCR analysis. Format: ADME, cell-based, Hepatocyte.
The target of data set [22] is T1, Nuclear receptor subfamily 1 group I member 3. In words: Activation of CAR in rat hepatocytes assessed as increase in CYP2B-mediated benzyloxyresorufin O-dealkylation at 3 uM after 24 hrs by spectrofluorometric analysis relative to phenobarbital. Format: ADME, cell-based, Hepatocyte.
The target is the same in data set [23]. In words: Activation of rat CAR expressed in rat hepatocytes coexpressing CYP2B1 at 100 uM after 24 hrs by dual luciferase reporter gene assay relative to phenobarbital. Format: ADME, cell-based, Hepatocyte.
For data set [24], the system named is PXR mRNA. In words: Effect on PXR mRNA expression in rat hepatocytes at 30 uM by RT-PCR analysis relative to control. Format: ADME, cell-based, Hepatocyte. The following applies: read-out: FC.

The structures appear in SMILES notation.

Take `CC(C)(C)[C@]1(O)C[C@@H]2OC(=O)C[C@@]23C(=O)O[C@@H]2OC(=O)[C@H](O)[C@]213`: the fold induction at 1 µM in data set [1] worked out at 1.3. The Activity entry in data set [2] was “Not Active”; in [3], “Not Active”; in [4], 6%; in data set [6], “Non-toxic”; in data set [7], “Not Active”; in [8] it was 189%. Further, the Activity result is “Not Active” in [9]; “Not Active” in data set [10]; “Not Active” in data set [13]; “Not Active” in [17]; 64% in [18]; 18% in data set [19]. For the same molecule, the Activity entry in data set [20] is “Active”; in data set [21], “Not Active”; in data set [22], 44%; in data set [23], 115%. Further, the fold induction at 10 µM in data set [5] was 1.4; in data set [11], 1.1. In data set [12], the “inhibition (INH)” value is “Not Active”. For the same molecule, the results for the fold induction at 30 µM in data set [14] and in [24] were 1 and 0.8, respectively. For the same molecule, in data set [15], the fold induction at 3 µM amounted to 1. The fold induction at 50 µM in [16] stood at 1.4.

Values taken from ChEMBL document CHEMBL3526076, “Species-dependent and receptor-selective action of bilobalide on the function of constitutive androstane receptor and pregnane X receptor” (Drug Metab Dispos, 2012).
